For series [1], the target named is T1, DHFR partially purified from rat liver (Rattus norvegicus, UniProt Q920D2).
T1 construct: DHFR partially purified from rat liver; from tissue; host or cells: rat liver
T1 sequence (Q920D2 1-187): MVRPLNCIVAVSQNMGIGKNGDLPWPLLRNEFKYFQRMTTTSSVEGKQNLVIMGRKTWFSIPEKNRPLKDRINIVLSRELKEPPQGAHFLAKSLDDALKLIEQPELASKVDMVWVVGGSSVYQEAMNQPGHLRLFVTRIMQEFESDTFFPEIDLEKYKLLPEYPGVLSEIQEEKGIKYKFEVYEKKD
Description: Inhibition of mammalian dihydrofolate reductase (DHFR). It counts as biochemical. Here is the method: The inhibitory effect of the test compounds against DHFR partially purified from rat liver was determined.

Series [2] concerns the target Histamine N-methyl-transferase ( HMT ) (Homo sapiens, UniProt P50135). Put plainly: Inhibition of histamine N-methyltransferase (HMT). It counts as biochemical. The following applies: read-out: % inhibition of HMT at 10^-5M. Here is the method:
EXAMPLE 4 Inhibition of Histamine N-methyl-transferase ( HMT ) by 2,4-Diamino-6-benzylpyrido(2,3-d)pyrimidine
The effect of the test compounds used in Example 3 against HMT was determined. An inhibition of less than 20% was considered acceptable and the lack of any effect on this enzyme is most desirable since any interference with histamine metabolism should be minimized.

A further series deals with Leukemia P388 cells. Description: Antileukemic effect on intraperitoneally inoculated P388 leukemia in mice. In kind it is in vivo, CDF, Charles River female mice. The following applies: for antileukemic activity: mice, 22, 33.5, 50 and 75 mg/kg, same schedule (twice daily for three days); for % increases in life span: mice. The text has this: Leukemia P388 cells were inoculated intraperitoneally in CDF, Charles River female mice, each animal receiving 10^6 cells. On the second day after implantation with the leukemic cells, drug treatment was commenced and continued twice daily for three days.

The test system of a further series is Solid Walker 256 tumors. Put plainly: Antitumor effect on subcutaneously implanted Walker 256 tumors in rats. It counts as in vivo. The following applies: for mean tumor volume as % of the untreated group: after 17 days. The protocol: Solid Walker 256 tumors were implanted subcutaneously into three groups of rats. On the third day after implantation with the tumors drug treatment was commenced and continued for 5 successive days. One group of rats was treated with 2,4-diamino-6-(2,5-dimethoxybenzyl)-5-methylpyrido(2,3-d) pyrimidine at a dose of 25mg/kg q.i.d., a second group was treated with the same compound at 15 mg/kg b.i.d.; the third group were left untreated as controls.
In a second study tumors were implanted subcutaneously and drug treatment delayed until 10 days after implantation. Drug treatment consisted of 30 mg/kg q.i.d. on days 10-13 and 50 mg/kg on days 20, 24 and 28 after tumor implantation. Mean tumor volumes were measured during the course of this study. […] Twenty-three days after tumor implantation T/C was 0.03.

The nature of series [3]: Acute toxicity in mice (i.p.). The following applies: mouse, in vivo, ip. Here is the method:
The acute toxicity of the title compounds was determined in mice ( i.p. ). The following results were obtained:-

Usually IC50 stands for the concentration needed to halve the response being measured. Lower therefore signals inhibition by little substance. Usually inhibition stands for the percentage by which the read-out fell short of the control. What is called LD50 is the dose at which mortality reaches 50%. Low readings indicate a more toxic substance, high ones a less toxic substance.

Histamine N-methyl-transferase ( HMT ), sequence (P50135 whole entry, species assumed): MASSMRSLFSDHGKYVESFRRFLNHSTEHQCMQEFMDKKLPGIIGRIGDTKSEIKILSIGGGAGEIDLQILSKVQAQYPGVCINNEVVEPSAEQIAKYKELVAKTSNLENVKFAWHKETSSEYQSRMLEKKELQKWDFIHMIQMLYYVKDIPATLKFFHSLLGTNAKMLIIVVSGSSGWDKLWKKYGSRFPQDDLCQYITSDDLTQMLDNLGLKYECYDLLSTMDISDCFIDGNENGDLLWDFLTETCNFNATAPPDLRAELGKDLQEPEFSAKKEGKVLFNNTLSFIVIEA

For the compound `Nc1nc(N)c2cc(Cc3ccccc3)cnc2n1`, 250 nM corresponded to half-maximal inhibition in series [1] (IC50). Also, the inhibition at 10 µM in series [2] came to 48%.

Turning to `COc1ccc(Cc2cnc3nc(N)nc(N)c3c2C)cc1OC`, the IC50 in series [1] was 7.8 nM. The inhibition at 10 µM in series [2] was 19%.

Compound `Cc1ccc(Cc2cnc3nc(N)nc(N)c3c2C)cc1` showed an IC50 in series [1] of 27 nM.

For the compound `COc1ccccc1Cc1cnc2nc(N)nc(N)c2c1C`, the IC50 in series [1] turned out to be 50 nM. The inhibition at 10 µM in series [2] came out at 18%.

Compound `CCc1ccc(Cc2cnc3nc(N)nc(N)c3c2C)cc1` had an IC50 in series [1] of 90 nM. Moreover, the inhibition at 10 µM in series [2] was 55%.

On to `COc1ccc(Cc2cnc3nc(N)nc(N)c3c2C)cc1`, for which the antileukemic activity result in the series with Leukemia P388 cells is “inactive at all doses”.

As to `COc1ccc(OC)c(Cc2cnc3nc(N)nc(N)c3c2C)c1` [2,4-Diamino-5-methyl-6-(2,5-dimethoxybenzyl)pyrido-(2,3-d)pyrimidine)], the entries for the “mean tumor volume as % of the untreated group” value with Solid Walker 256 tumors (15 mg/kg b.i.d. for 5 successive days from third day after implantation) and with Solid Walker 256 tumors (25mg/kg q.i.d. for 5 successive days from third day after implantation) were 10% and 29%, respectively. The “mean tumor volume during the period of observation” value in the series on Solid Walker 256 tumors (second study, 30 mg/kg q.i.d. on days 10-13 and 50 mg/kg on days 20, 24 and 28) is given as “decrease in mean tumor volume”. In the series with Solid Walker 256 tumors (second study, 30 mg/kg q.i.d. on days 10-13 and 50 mg/kg on days 20, 24 and 28, twenty-three days after tumor implantation), this compound came in with a T/C of 0.03. Also, the “% increases in life span” value in the series with Leukemia P388 cells (22 mg/kg twice daily for three days from second day) came to 145%; with Leukemia P388 cells (33.5 mg/kg twice daily for three days from second day) it was 159%; with Leukemia P388 cells (50 mg/kg twice daily for three days from second day) it was 140%; in the series with Leukemia P388 cells (75 mg/kg twice daily for three days from second day) it was 154%. Also, the drug-related toxicity result with Leukemia P388 cells (mice, 22, 33.5, 50 and 75 mg/kg twice daily for three days) is recorded as “no evidence of drug-related toxicity”. Further, the LD50 in series [3] is roughly 500 mg/kg.

`Cc1c(Cc2ccccc2Cl)cnc2nc(N)nc(N)c12` [2-chlorobenzyl compound]: the antileukemic activity entry in the series with Leukemia P388 cells was “only marginal or slight activity”.

`Cc1c(Cc2ccccc2)cnc2nc(N)nc(N)c12` [-CH2 Ph]: inhibition in series [1] was half-maximal at 40 nM (IC50). Moreover, in series [2], the inhibition at 10 µM worked out at 51%.

`Cc1c(Cc2ccccc2Cl)cnc2nc(N)nc(N)c12` [the 1st table, row 5] displayed an IC50 in series [1] of 16 nM. In addition, in series [2], the inhibition at 10 µM stood at 59%.

With `COc1ccc(Cc2cnc3nc(N)nc(N)c3c2C)cc1` [the 1st table, row 8], the IC50 in series [1] was found to be 53 nM. In addition, the inhibition at 10 µM in series [2] came out at 20%.

Take `COc1ccc(OC)c(Cc2cnc3nc(N)nc(N)c3c2C)c1` [the 1st table, row 11]: the inhibition at 10 µM in series [2] was found to be 11%.

The values are drawn from patent publication EP0021292A1, “Alkoxybenzylpyridopyrimidines, methods for their preparation and pharmaceutical formulations thereof” (THE WELLCOME FOUNDATION LIMITED, priority 1979, dated 1981).
